EC50 data for 23 compounds are collected here from patent publication US10933056B2, “3-(1H-pyrazol-4-yl)pyridine allosteric modulators of the M4 muscarinic acetylcholine receptor” (Merck Sharp & Dohme Corp., priority 2015, dated 2021).

The assay addresses T1, human M4 muscarinic acetylcholine receptor (Homo sapiens, UniProt P08173).
T1 construct: expressed in transfected cells; host or cells: CHO-K1
T1 sequence (P08173 1-479): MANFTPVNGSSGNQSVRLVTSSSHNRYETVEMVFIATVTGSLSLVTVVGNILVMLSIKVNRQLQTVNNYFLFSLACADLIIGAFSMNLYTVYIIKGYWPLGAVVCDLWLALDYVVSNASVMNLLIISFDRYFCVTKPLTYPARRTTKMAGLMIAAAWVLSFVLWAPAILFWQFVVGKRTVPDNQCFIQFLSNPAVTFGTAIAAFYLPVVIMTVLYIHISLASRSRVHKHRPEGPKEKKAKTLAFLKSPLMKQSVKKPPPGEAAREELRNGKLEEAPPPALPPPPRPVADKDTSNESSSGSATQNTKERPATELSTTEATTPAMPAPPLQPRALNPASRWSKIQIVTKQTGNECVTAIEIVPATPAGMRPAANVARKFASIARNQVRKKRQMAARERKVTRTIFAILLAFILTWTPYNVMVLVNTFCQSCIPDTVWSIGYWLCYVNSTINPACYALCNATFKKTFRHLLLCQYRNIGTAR
The assay can be described thus: human FLIPR-based M4 PAM assay (calcium mobilization in CHO-K1 cells with human M4 receptor and Gαqi5). In kind it is cell-based. The following applies: inflection point of dose response curve, acetylcholine at 20% of maximum response, FLIPR Tetra, read-out: M4 PAM IP. How it is done:
(§1) In a typical experiment the M4 muscarinic acetylcholine receptor modulating activity of the compounds of the present invention was determined in accordance with the following experimental method. CHO-K1 cells stably transfected with human M4 receptor and chimeric G-protein Gαqi5 (Coward P, et al., Analytical Biochemistry, 270:242-248 (1999)) are thawed from liquid N2 storage, resuspended in growth medium, plated in black, clear bottom 384 well plates, and incubated 16-20 hours at 37° C., 5% CO2. On the day of assay, growth medium is removed, the cells are washed 2 times with wash buffer, and cells are incubated in dye loading buffer at 37° C., 5% CO2 for ˜1 hour. Following dye loading the cell plates are placed in a FLIPR Tetra instrument and while monitoring dye fluorescence (excitation […]), 10 uL of test substance at increasing concentrations is added, and fluorescence values are recorded for 4 min. Next, 10 uL of acetylcholine is added (final concentration calculated so as to achieve 20% of the maximum acetycholine response), and the fluorescence reading is continued for 3.5 min. In some cases, a third addition of acetylcholine (final concentration calculated to achieve 70% of the maximal acetylcholine response) is performed. The resulting dose response curves are fit to a 4 parameter logistic equation and the final result is determined as the inflection point (IP) of the curve
as §1, with “CHO-K1” for “In a typical experiment the M4 muscarinic acetylcholine receptor modulating activity of the compounds of the present invention was determined in accordance with the following experimental method. CHO-K1”, “Gαqi5” for “Gαqi5 (Coward P, et al., Analytical Biochemistry, 270:242-248 (1999))”, “performed.” for “performed. The resulting dose response curves are fit to a 4 parameter logistic equation and the final result is determined as the inflection point (IP) of the curve”
(In general: Calcium flux is commonly read through the fluorescence of an indicator in the cells.)
Take `CN1Cc2ccc(-c3nc(C#N)ccc3-c3cnn(CC4(C)CCCC4)c3Cl)cc2C1=O` [Example 79, 5-(5-chloro-1-((1-methylcyclopentyl)methyl)-1H-pyrazol-4-yl)-6-(2-methyl-3-oxoisoindolin-5-yl)picolinonitrile]: the EC50 was determined as 108 nM.

With `CC1(Cn2cc(-c3c(F)ccnc3-c3ccc4c(c3)C(=O)N(CC3CC3)C4)cn2)CCCC1` [Example 29, 2-(cyclopropylmethyl)-6-(4-fluoro-3-(1-((1-methylcyclopentyl)methyl)-1H-pyrazol-4-yl)pyridin-2-yl)isoindolin-1-one], the EC50 was determined as 13 nM.

For the compound `Cc1cc(-c2cnn(CC3(C)CCCC3)c2)c(-c2ccc3c(c2)C(=O)NC3)nc1Cl` [Example 40, 6-(6-chloro-5-methyl-3-(1-((1-methylcyclopentyl)methyl)-1H-pyrazol-4-yl)pyridin-2-yl)isoindolin-1-one], the EC50 turned out to be 49 nM. As for `Cc1ccc(-c2cnn(CC3CCCC3)c2)c(-c2ccc3c(c2)C(=O)N(CC2CC2)C3)n1` [Example 3, 6-(3-(1-(cyclopentylmethyl)-1H-pyrazol-4-yl)-6-methylpyridin-2-yl)-2-(cyclopropylmethyl)isoindolin-1-one], the EC50 worked out at 38 nM. As for `O=C1c2cc(-c3ncccc3-c3cnn(CC4CCCC4)c3)ccc2CN1C1CCC1` [Example 89, 2-cyclobutyl-6-(3-(1-(cyclopentylmethyl)-1H-pyrazol-4-yl)pyridin-2-yl)isoindolin-1-one], the figure is 32 nM; as for `O=C1c2cc(-c3nc(F)ccc3-c3cnn(CC4CCCC4)c3)ccc2CN1CC1CC1` [Example 21, 6-(3-(1-(cyclopentylmethyl)-1H-pyrazol-4-yl)-6-fluoropyridin-2-yl)-2-(cyclopropylmethyl)isoindolin-1-one], 22 nM; as for `CN1Cc2ccc(-c3nc(C#N)c(F)cc3-c3cnn(CC4(C)CCCC4)c3)cc2C1=O` [Example 47, 3-fluoro-6-(2-methyl-3-oxoisoindolin-5-yl)-5-(1-((1-methylcyclopentyl)methyl)-1H-pyrazol-4-yl)picolinonitrile], 20 nM. As for `Cc1ccc(-c2cnn(CC3(C)CCCC3)c2)c(-c2ccc3c(c2)C(=O)N(C)C3)n1` [Example 27, 2-methyl-6-(6-methyl-3-(1-((1-methylcyclopentyl)methyl)-1H-pyrazol-4-yl)pyridin-2-yl)isoindolin-1-one], the figure is 11 nM; as for `CC1(Cn2cc(-c3cc4c(nc3-c3cnc5c(c3)C(=O)NC5)[C@@H](F)CC4)cn2)CCCC1` [Example 39B, (S)-3-(7-fluoro-3-(1-((1-methylcyclopentyl)methyl)-1H-pyrazol-4-yl)-6,7-dihydro-5H-cyclopenta[b]pyridin-2-yl)-6,7-dihydro-5H-pyrrolo[3,4-b]pyridin-5-one], 25 nM; as for `CN1Cc2ncc(-c3nc(C#N)ccc3-c3cnn(CC4(C)CCCC4)c3)cc2C1=O` [Example 95, 6-(6-Methyl-5-oxo-6,7-dihydro-5H-pyrrolo[3,4-b]pyridin-3-yl)-5-(1-((1-methylcyclopentyl)methyl)-1H-pyrazol-4-yl)picolinonitrile], 21 nM. As for `CC1(Cn2cc(-c3ccc(C#N)nc3-c3ccc4c(c3)C(=O)N(CC3CC3)C4)cn2)CCCC1` [Example 32, 6-(2-(cyclopropylmethyl)-3-oxoisoindolin-5-yl)-5-(1-((1-methylcyclopentyl)methyl)-1H-pyrazol-4-yl)picolinonitrile], the figure is 7 nM; as for `CN1Cc2ncc(-c3nc(C#N)ccc3-c3cnn(CC4(C)CCCC4)c3F)cc2C1=O` [Example 54, 5-(5-fluoro-1-((1-methylcyclopentyl)methyl)-1H-pyrazol-4-yl)-6-(6-methyl-5-oxo-6,7-dihydro-5H-pyrrolo[3,4-b]pyridin-3-yl)picolinonitrile], 8 nM; as for `O=C1c2cc(-c3ncccc3-c3cnn(CC4CCCC4)c3)ccc2CN1CCc1ccccc1` [Example 92, 6-(3-(1-(cyclopentylmethyl)-1H-pyrazol-4-yl)pyridin-2-yl)-2-phenethylisoindolin-1-one], 45 nM. Consider `CC1(Cn2cc(-c3cc4c(nc3-c3ccc5c(c3)C(=O)N(CCF)C5)CCC4)cn2)CCCC1` [Example 49, 2-(2-fluoroethyl)-6-(3-(1-((1-methylcyclopentyl)methyl)-1H-pyrazol-4-yl)-6,7-dihydro-5H-cyclopenta[b]pyridin-2-yl)isoindolin-1-one], for which the EC50 came to 32 nM. `Cc1cc(-c2cnn(CC3(C)CCCC3)c2)c(-c2ccc3c(c2)C(=O)NC3)nc1C#N` [Example 112A, 3-methyl-5-(1-((1-methylcyclopentyl)methyl)-1H-pyrazol-4-yl)-6-(3-oxoisoindolin-5-yl)picolinonitrile]: the EC50 stood at 36 nM. As for `CNC(=O)C1(N2Cc3ccc(-c4ncccc4-c4cnn(CC5CCCC5)c4)cc3C2=O)CC1` [Example 90, 1-(6-(3-(1-(cyclopentylmethyl)-1H-pyrazol-4-yl)pyridin-2-yl)-1-oxoisoindolin-2-yl)-N-methylcyclopropane-1-carboxamide], the figure is 359 nM; as for `Cc1cc(-c2cnn(CC3(C)CCCC3)c2)c(-c2ccc3c(c2)C(=O)N(C)C3)nc1C` [Example 109, 6-(5,6-Dimethyl-3-(1-((1-methylcyclopentyl)methyl)-1H-pyrazol-4-yl)pyridin-2-yl)-2-methylisoindolin-1-one], 48 nM. With `CC1(Cn2cc(-c3cc4c(nc3-c3cnc5c(c3)C(=O)N(CCC#N)C5)CCC4)cn2)CCCC1` [Example 69, 3-(3-(3-(1-((1-methylcyclopentyl)methyl)-1H-pyrazol-4-yl)-6,7-dihydro-5H-cyclopenta[b]pyridin-2-yl)-5-oxo-5,7-dihydro-6H-pyrrolo[3,4-b]pyridin-6-yl)propanenitrile], the EC50 is 34 nM. As for `CN1Cc2ncc(-c3nc(C(F)(F)F)ccc3-c3cnn(CC4(C)CCCC4)c3)cc2C1=O` [Example 81, 6-methyl-3-(3-(1-((1-methylcyclopentyl)methyl)-1H-pyrazol-4-yl)-6-(trifluoromethyl)pyridin-2-yl)-6,7-dihydro-5H-pyrrolo[3,4-b]pyridin-5-one], the figure is 46 nM. To `CN1Cc2ccc(-c3nc(F)ccc3-c3cnn(CC4(C)CCCC4)c3)cc2C1=O` [Example 36, 6-(6-fluoro-3-(1-((1-methylcyclopentyl)methyl)-1H-pyrazol-4-yl)pyridin-2-yl)-2-methylisoindolin-1-one] belongs 6 nM; to `Cc1ccc(-c2cnn(CC3CCCC3)c2)c(-c2ccc3c(c2)C(=O)N(C2CC2)C3)n1` [Example 6, 6-(3-(1-(cyclopentylmethyl)-1H-pyrazol-4-yl)-6-methylpyridin-2-yl)-2-cyclopropylisoindolin-1-one], 20 nM. As for `CC1(Cn2cc(-c3ccc(C#N)nc3-c3cnc4c(c3)C(=O)N(C3CC3)C4)cn2)CCCC1` [Example 105, 6-(6-cyclopropyl-5-oxo-6,7-dihydro-5H-pyrrolo[3,4-b]pyridin-3-yl)-5-(1-((1-methylcyclopentyl)methyl)-1H-pyrazol-4-yl)picolinonitrile], the EC50 was 36 nM. Turning to `CC1(Cn2cc(-c3cc4c(nc3-c3cnc5c(c3)C(=O)N(CCF)C5)CCC4)cn2)CCCC1` [Example 66, 6-(2-fluoroethyl)-3-(3-(1-((1-methylcyclopentyl)methyl)-1H-pyrazol-4-yl)-6,7-dihydro-5H-cyclopenta[b]pyridin-2-yl)-6,7-dihydro-5H-pyrrolo[3,4-b]pyridin-5-one], the EC50 turned out to be 39 nM.
